species on record: Cavia porcellus; test: pA2 was evaluated from schild analyses of the guinea pig ileum contractility data; format: functional; details: read-out: pA2 (converted)

| Structure (SMILES) | Kb |
| --- | --- |
| CCn1c(/C=C/C=C2\N(C)c3ccccc3C2(C)C)[n+](CC)c2nc3ccccc3nc21.[Cl-] | 58.9 nM |
| CCn1c(/C=C/C=C2\N(C)c3ccccc3C2(C)C)[n+](CC)c2cc3ccccc3cc21.[Cl-] | 35.5 nM |

tested on: Rattus norvegicus; test: In vivo SP antagonist activity in rats using SP-induced salivation and paw edema assays; format: functional; details: not given

| Structure (SMILES) | ED50 |
| --- | --- |
| CCn1c(/C=C/C=C2\N(C)c3ccccc3C2(C)C)[n+](CC)c2cc3ccccc3cc21.[Cl-] | 0.48 mg/kg |

tested on: Rattus norvegicus; test: cIn vivo SP antagonist activity in rats using SP-induced salivation and paw edema assays; format: functional; details: not given

| Structure (SMILES) | ED50 |
| --- | --- |
| CCn1c(/C=C/C=C2\N(C)c3ccccc3C2(C)C)[n+](CC)c2nc3ccccc3nc21.[Cl-] | 1.73 mg/kg |

biological target: Substance-P receptor (Rattus norvegicus, UniProt P14600); test: Inhibition of Tachykinin receptor 1 of rat forebrain tissue; details: not given
Sequence (P14600 whole entry): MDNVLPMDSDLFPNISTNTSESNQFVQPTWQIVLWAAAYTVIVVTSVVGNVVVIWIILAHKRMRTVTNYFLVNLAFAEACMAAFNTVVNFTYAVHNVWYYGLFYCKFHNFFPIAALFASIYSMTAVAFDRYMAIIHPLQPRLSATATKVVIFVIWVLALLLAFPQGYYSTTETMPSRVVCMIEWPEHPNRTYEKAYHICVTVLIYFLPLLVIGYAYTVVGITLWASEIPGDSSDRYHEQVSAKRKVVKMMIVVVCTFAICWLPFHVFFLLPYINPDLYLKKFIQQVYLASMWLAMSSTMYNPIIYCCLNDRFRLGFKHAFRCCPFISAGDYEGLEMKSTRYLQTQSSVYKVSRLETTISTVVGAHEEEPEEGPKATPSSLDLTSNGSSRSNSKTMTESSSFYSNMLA

| Structure (SMILES) | IC50 |
| --- | --- |
| CCN1/C(=C\C=C2CC[n+]3c2n(CC)c2cc4ccccc4cc23)Oc2ccccc21 | 4200 nM |
| CCN1/C(=C\C=C2/CCC[n+]3c2n(CC)c2cc4ccccc4cc23)Sc2ccccc21 | 1300 nM |
| CCN1/C(=C\C=C\c2n(CC)c3cc4ccccc4cc3[n+]2CC)C(C)(C)c2ccccc21 | 360 nM |
| CCn1c2[n+](c3cc4ccccc4cc31)C(C)CC2=C/C=C1\N(C)c2ccc3ccccc3c2C1(C)C (stereo not given) | 310 nM |
| CCN1/C(=C\C=C\c2n(CC)c3cc4ccccc4cc3[n+]2CC)Oc2ccccc21 | 310 nM |
| CCN1/C(=C\C=C\c2n(CC)c3cc4ccccc4cc3[n+]2CC)Sc2ccccc21 | 320 nM |
| CCn1c(/C=C/C=C2\N(C)c3ccccc3C2(C)C)[n+](CC)c2cc3ccccc3cc21.[Cl-] | 390 nM |
| CCn1c(/C=C/C=C2\N(C)c3ccccc3C2(C)C)[n+](CCO)c2cc3ccccc3cc21 | 450 nM |
| CCn1c2[n+](c3cc4ccccc4cc31)CCC2=C/C=C1\N(C)c2ccccc2C1(C)C | 790 nM |
| CCN1/C(=C\C=C2CC(C)[n+]3c2n(CC)c2cc4ccccc4cc23)Sc2ccccc21 (stereo not given) | 180 nM |
| CCn1c(/C=C/C=C2\N(C)c3ccccc3C2(C)C)[n+](CCOC(C)=O)c2cc3ccccc3cc21 | 410 nM |
